Reference: patent US20240327364A1, “THERAPEUTIC TARGETING OF GPR68 TO INDUCE FERROPTOSIS” (University Of Maryland, Baltimore, priority 2023, published 2024)
Marks after values point to notes of the source that are not given here.

What was measured:
PDPK1 = biological target: T1, PDPK1 (Homo sapiens, UniProt O15530); assay: KinomeScan; format: binding; details: read-out: % Control
T1 construct: purchased DiscoveRx (Fremont, CA)

MERTK = biological target: T2, MERTK (Homo sapiens, UniProt Q12866); assay: KinomeScan; format: binding; details: read-out: % Control
T2 construct: purchased DiscoveRx (Fremont, CA)

RAF1 = biological target: T3, RAF1 (Homo sapiens, UniProt P04049); assay: KinomeScan; format: binding; details: read-out: % Control
T3 construct: purchased DiscoveRx (Fremont, CA)

MEK2 = biological target: T4, MEK2 (Homo sapiens, UniProt P36507); assay: KinomeScan; format: binding; details: read-out: % Control
T4 construct: purchased DiscoveRx (Fremont, CA)

[1] = biological target: T5, ABL1(Q252H)-nonphosphorylated (Homo sapiens, UniProt P00519, Q252H); assay: KinomeScan; format: binding; details: read-out: % Control
T5 construct: purchased DiscoveRx

OPRM1 = biological target: T6, OPRM1 (Homo sapiens, UniProt P35372); assay: GPCR Profiler; format: cell-based
T6 construct: host or cells: Chem-1 cells expressing Gα15

HUNK = biological target: T7, HUNK (Homo sapiens, UniProt P57058); assay: KinomeScan; format: binding; details: read-out: % Control
T7 construct: purchased DiscoveRx (Fremont, CA)

MAP3K4 = biological target: T8, MAP3K4 (Homo sapiens, UniProt Q9Y6R4); assay: KinomeScan; format: binding; details: read-out: % Control
T8 construct: purchased DiscoveRx (Fremont, CA)

FRK = biological target: T9, FRK (Homo sapiens, UniProt P42685); assay: KinomeScan; format: binding; details: read-out: % Control
T9 construct: purchased DiscoveRx (Fremont, CA)

ADRB3 = biological target: T10, ADRB3 (Homo sapiens, UniProt P13945); assay: GPCR Profiler; format: cell-based; details: 12.5 uM
T10 construct: host or cells: Chem-1 cells with promiscuous Gα15

MAP3K1 = biological target: T11, MAP3K1 (Homo sapiens, UniProt Q13233); assay: KinomeScan; format: binding; details: read-out: % Control
T11 construct: purchased DiscoveRx

ZAP70 = biological target: T12, ZAP70 (Homo sapiens, UniProt P43403); assay: KinomeScan; format: binding; details: read-out: % Control
T12 construct: purchased DiscoveRx

RIOK3 = biological target: T13, RIOK3 (Homo sapiens, UniProt O14730); assay: KinomeScan; format: binding; details: read-out: % Control
T13 construct: purchased DiscoveRx (Fremont, CA)

PDGFRA = biological target: T14, PDGFRA (Homo sapiens, UniProt P16234); assay: KinomeScan; format: binding; details: read-out: % Control
T14 construct: purchased DiscoveRx (Fremont, CA)

MAP3K3 = biological target: T15, MAP3K3 (Homo sapiens, UniProt Q99759); assay: KinomeScan; format: binding; details: read-out: % Control
T15 construct: purchased DiscoveRx (Fremont, CA)

CRF1 = biological target: T16, CRF1 (Homo sapiens, UniProt P34998); assay: GPCR Profiler; format: cell-based
T16 construct: host or cells: Chem-1 cells with Gα15

TNIK = biological target: T17, TNIK (Homo sapiens, UniProt Q9UKE5); assay: KinomeScan; format: binding; details: read-out: % Control
T17 construct: purchased DiscoveRx (Fremont, CA)

PIK3CA(H1047Y) = biological target: T18, PIK3CA(H1047Y) (Homo sapiens, UniProt P42336, H1047Y); assay: KinomeScan; format: binding; details: read-out: % Control
T18 construct: purchased DiscoveRx (Fremont, CA)

DAPK1 = DAPK1 (Homo sapiens, UniProt P53355); assay: KinomeScan; format: binding; details: read-out: % Control
BB3 = biological target: T19, BB3 (Homo sapiens, UniProt P32247); assay: GPCR Profiler; format: cell-based
T19 construct: host or cells: Chem-1 cells with promiscuous Gα15

CAMK1G = biological target: T20, CAMK1G (Homo sapiens, UniProt Q96NX5); assay: KinomeScan; format: binding; details: read-out: % Control
T20 construct: purchased DiscoveRx (KinomeScan service)

ROCK1 = biological target: T21, ROCK1 (Homo sapiens, UniProt Q13464); assay: KinomeScan; format: binding; details: read-out: % Control
T21 construct: purchased DiscoveRx (Fremont, CA)

IRAK3 = biological target: T22, IRAK3 (Homo sapiens, UniProt Q9Y616); assay: KinomeScan; format: binding; details: read-out: % Control
T22 construct: purchased DiscoveRx (Fremont, CA)

FER = biological target: T23, FER (Homo sapiens, UniProt P16591); assay: KinomeScan; format: binding; details: read-out: % Control
T23 construct: purchased DiscoveRx (Fremont, CA)

FGFR3 = biological target: T24, FGFR3 (Homo sapiens, UniProt P22607); assay: KinomeScan; format: binding; details: read-out: % Control
T24 construct: purchased DiscoveRx (Fremont, CA)

BRSK2 = biological target: T25, BRSK2 (Homo sapiens, UniProt Q8IWQ3); assay: KinomeScan; format: binding; details: read-out: % Control
T25 construct: purchased DiscoveRx (KinomeScan service)

TRKA = biological target: T26, TRKA (Homo sapiens, UniProt P04629); assay: KinomeScan; format: binding; details: read-out: % Control
T26 construct: purchased DiscoveRx (Fremont, CA)

CXCR5 = biological target: T27, CXCR5 (Homo sapiens, UniProt P32302); assay: GPCR Profiler; format: cell-based
T27 construct: host or cells: Chem-1 cells with Gα15

[2] = biological target: T28, ABL1(M351T)-phosphorylated (Homo sapiens, UniProt P00519, M351T); assay: KinomeScan; format: binding; details: read-out: % Control
T28 construct: purchased DiscoveRx

GPR14 = biological target: T29, GPR14 (Homo sapiens, UniProt Q9UKP6); assay: GPCR Profiler; format: cell-based; details: 12.5 uM
T29 construct: host or cells: Chem-1 cells expressing Gα15

CXCR1 = biological target: T30, CXCR1 (Homo sapiens, UniProt P25024); assay: GPCR Profiler; format: cell-based
T30 construct: host or cells: Chem-1 cells with Gα15

TEC = biological target: T31, TEC (Homo sapiens, UniProt P42680); assay: KinomeScan; format: binding; details: read-out: % Control
T31 construct: purchased DiscoveRx (Fremont, CA)

SNARK = biological target: T32, SNARK (Homo sapiens, UniProt Q9H093); assay: KinomeScan; format: binding; details: read-out: % Control
T32 construct: purchased DiscoveRx (Fremont, CA)

GLP-2 = biological target: T33, GLP-2 (Homo sapiens, UniProt O95838); assay: GPCR Profiler; format: cell-based
T33 construct: host or cells: Chem-1 cells expressing Gα15

BB1 = biological target: T34, BB1 (Homo sapiens, UniProt P28336); assay: GPCR Profiler; format: cell-based
T34 construct: host or cells: Chem-1 cells with promiscuous Gα15

AKT1 = biological target: T35, AKT1 (Homo sapiens, UniProt P31749); assay: KinomeScan; format: binding; details: read-out: % Control
T35 construct: purchased DiscoveRx (Fremont, CA)

CaS = biological target: T36, CaS (Homo sapiens, UniProt P41180); assay: GPCR Profiler; format: cell-based
T36 construct: host or cells: Chem-1 cells with promiscuous Gα15
T36 sequence (P41180 20-1078): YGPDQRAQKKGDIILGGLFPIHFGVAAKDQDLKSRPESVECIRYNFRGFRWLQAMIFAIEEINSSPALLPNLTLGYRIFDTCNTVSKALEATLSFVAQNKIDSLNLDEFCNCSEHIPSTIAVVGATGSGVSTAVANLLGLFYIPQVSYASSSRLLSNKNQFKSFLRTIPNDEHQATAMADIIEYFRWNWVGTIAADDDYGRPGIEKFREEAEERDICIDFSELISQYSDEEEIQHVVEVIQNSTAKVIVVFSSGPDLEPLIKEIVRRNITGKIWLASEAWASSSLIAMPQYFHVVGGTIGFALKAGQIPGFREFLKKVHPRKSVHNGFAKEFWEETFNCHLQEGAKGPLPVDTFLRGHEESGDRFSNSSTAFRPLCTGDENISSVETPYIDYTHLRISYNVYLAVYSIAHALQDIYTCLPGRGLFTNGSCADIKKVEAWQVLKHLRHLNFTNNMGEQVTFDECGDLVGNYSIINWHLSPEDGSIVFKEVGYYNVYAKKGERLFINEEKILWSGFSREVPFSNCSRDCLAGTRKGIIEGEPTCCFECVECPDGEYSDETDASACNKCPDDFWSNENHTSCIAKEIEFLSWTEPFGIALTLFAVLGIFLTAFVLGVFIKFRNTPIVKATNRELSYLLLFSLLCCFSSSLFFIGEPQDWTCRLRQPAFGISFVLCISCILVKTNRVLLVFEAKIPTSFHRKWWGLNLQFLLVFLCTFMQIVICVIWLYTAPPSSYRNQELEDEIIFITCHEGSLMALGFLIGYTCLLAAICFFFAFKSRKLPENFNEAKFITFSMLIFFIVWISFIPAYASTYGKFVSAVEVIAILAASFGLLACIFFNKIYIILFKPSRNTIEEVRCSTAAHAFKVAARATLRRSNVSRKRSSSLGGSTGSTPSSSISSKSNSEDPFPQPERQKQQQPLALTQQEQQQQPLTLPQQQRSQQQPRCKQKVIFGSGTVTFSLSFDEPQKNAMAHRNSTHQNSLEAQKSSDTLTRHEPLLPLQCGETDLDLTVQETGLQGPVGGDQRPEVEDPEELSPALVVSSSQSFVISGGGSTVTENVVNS

T6 sequence (P35372 whole entry, species assumed): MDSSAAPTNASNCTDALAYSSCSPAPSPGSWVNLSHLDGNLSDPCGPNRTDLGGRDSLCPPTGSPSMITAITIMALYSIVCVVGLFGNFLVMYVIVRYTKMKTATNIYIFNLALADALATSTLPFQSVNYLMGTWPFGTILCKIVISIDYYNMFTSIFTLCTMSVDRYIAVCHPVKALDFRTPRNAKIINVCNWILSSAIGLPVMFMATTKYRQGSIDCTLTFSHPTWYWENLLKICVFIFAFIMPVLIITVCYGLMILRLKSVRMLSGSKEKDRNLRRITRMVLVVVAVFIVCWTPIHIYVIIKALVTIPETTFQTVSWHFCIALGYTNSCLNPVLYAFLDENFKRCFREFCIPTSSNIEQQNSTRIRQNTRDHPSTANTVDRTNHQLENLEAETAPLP
T34 sequence (P28336 whole entry): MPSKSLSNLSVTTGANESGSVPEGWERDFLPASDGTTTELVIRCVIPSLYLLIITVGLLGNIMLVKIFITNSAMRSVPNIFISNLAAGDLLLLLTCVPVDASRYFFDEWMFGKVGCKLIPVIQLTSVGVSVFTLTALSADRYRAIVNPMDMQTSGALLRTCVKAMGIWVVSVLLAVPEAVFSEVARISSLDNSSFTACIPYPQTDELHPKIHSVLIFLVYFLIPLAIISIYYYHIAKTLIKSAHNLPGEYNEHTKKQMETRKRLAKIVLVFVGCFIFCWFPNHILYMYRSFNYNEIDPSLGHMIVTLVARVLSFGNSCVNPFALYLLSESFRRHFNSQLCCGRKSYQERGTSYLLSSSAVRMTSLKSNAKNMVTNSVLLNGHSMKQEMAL
T30 sequence (P25024 whole entry, species assumed): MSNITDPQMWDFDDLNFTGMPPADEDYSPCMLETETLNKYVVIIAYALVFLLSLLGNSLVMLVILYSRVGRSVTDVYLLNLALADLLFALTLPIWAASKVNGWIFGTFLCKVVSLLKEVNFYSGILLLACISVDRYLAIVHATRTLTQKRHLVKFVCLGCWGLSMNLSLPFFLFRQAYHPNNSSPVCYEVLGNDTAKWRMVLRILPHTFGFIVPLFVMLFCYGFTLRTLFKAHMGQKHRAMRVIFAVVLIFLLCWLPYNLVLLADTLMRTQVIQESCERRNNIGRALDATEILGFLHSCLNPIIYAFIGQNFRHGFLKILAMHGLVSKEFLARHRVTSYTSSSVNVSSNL
T16 sequence (P34998 24-415): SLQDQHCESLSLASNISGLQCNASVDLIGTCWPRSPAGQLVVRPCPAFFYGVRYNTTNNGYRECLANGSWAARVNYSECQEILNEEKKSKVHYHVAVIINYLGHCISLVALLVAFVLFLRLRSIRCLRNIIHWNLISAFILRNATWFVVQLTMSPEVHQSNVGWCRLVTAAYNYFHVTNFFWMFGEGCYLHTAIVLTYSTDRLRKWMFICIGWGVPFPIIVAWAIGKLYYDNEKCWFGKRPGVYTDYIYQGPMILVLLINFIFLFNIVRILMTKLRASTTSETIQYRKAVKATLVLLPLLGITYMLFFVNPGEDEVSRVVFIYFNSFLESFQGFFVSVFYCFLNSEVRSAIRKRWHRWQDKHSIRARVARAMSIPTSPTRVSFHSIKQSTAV
T27 sequence (P32302 whole entry, species assumed): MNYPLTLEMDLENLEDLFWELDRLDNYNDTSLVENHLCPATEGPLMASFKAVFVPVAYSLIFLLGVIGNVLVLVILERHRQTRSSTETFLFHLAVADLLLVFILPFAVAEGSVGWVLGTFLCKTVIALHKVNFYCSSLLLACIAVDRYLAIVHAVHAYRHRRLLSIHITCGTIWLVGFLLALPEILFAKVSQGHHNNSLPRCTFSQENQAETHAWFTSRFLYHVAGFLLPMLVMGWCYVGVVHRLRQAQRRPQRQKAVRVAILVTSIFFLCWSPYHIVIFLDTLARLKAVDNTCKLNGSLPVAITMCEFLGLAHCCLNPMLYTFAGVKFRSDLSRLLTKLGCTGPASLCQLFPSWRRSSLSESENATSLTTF
T33 sequence (O95838 whole entry): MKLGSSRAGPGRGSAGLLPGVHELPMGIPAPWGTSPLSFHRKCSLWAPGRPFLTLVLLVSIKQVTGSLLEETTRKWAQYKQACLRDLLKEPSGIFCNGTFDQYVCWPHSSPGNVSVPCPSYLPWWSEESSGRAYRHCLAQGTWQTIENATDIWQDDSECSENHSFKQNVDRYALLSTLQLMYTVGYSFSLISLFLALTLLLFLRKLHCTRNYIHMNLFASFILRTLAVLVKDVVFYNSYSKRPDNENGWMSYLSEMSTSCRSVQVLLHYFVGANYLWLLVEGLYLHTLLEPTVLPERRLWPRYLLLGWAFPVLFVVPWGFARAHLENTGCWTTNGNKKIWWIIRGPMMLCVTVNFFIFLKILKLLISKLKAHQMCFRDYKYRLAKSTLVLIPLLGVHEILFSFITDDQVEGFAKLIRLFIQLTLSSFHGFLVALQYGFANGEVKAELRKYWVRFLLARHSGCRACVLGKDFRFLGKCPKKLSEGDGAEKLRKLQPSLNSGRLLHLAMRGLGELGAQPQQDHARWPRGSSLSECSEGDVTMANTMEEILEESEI
T19 sequence (P32247 whole entry): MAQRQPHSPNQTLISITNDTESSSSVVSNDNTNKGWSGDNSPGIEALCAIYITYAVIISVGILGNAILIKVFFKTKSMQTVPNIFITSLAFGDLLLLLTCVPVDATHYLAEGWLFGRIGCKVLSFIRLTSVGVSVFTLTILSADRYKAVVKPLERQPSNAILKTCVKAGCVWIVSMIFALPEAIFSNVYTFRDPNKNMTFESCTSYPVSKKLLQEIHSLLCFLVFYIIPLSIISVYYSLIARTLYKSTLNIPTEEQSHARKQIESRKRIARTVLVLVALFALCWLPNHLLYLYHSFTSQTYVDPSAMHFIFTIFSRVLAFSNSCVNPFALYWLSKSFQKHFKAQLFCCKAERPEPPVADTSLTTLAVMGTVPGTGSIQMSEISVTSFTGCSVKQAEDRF
T26 sequence (P04629 33-796): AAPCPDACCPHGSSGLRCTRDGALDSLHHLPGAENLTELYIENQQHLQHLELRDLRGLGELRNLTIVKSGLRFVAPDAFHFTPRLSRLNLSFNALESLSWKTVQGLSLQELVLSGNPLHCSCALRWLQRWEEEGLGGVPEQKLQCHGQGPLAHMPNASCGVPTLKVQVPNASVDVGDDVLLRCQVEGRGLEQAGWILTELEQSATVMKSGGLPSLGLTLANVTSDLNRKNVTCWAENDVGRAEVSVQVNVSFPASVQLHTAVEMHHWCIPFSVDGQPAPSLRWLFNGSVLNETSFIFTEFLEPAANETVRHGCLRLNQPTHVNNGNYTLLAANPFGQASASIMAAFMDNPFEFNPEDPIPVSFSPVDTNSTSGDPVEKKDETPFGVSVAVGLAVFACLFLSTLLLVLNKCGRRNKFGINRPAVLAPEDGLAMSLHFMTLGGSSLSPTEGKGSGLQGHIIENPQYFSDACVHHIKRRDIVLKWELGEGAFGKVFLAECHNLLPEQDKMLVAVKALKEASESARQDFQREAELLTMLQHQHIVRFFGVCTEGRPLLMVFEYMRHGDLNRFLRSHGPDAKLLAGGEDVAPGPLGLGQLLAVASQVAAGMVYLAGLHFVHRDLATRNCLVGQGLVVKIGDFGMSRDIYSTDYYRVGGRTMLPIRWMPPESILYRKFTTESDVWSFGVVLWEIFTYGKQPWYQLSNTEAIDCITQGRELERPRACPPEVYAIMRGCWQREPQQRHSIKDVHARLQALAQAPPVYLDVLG

Structure (SMILES): CCc1ccc2c(c1)C1(NN=C(c3cccc4ccccc34)S1)C(=O)N2 (stereo not drawn) [OGM1, 5-ethyl-5′-naphthalen-1-ylspiro[1H-indole-3,2′-3H-1,3,4-thiadiazole]-2-one]
- remaining binding at 10 µM (PDPK1): 100%
- remaining binding at 10 µM (MERTK): 80%
- remaining binding at 10 µM (RAF1): 100%
- remaining binding at 10 µM (MEK2): 94%
- remaining binding at 10 µM [1]: 84%
- Antagonism (OPRM1; 10 uM): −0.7
- Agonism (OPRM1; 12.5 uM): −0.7
- remaining binding at 10 µM (HUNK): 83%
- remaining binding at 10 µM (MAP3K4): 100%
- remaining binding at 10 µM (FRK): 100%
- Agonism (ADRB3): −0.2
- remaining binding at 10 µM (MAP3K1): 72%
- remaining binding at 10 µM (ZAP70): 73%
- remaining binding at 10 µM (RIOK3): 100%
- remaining binding at 10 µM (PDGFRA): 100%
- remaining binding at 10 µM (MAP3K3): 72%
- Antagonism (CRF1; 10 uM): 4.6
- Agonism (CRF1; 12.5 uM): −0.1
- remaining binding at 10 µM (TNIK): 71%
- remaining binding at 10 µM (PIK3CA(H1047Y)): 59%
- remaining binding at 10 µM (DAPK1): 90%
- Antagonism (BB3; 10 uM): −0.7
- Agonism (BB3; 12.5 uM): 1.3
- remaining binding at 10 µM (CAMK1G): 80%
- remaining binding at 10 µM (ROCK1): 71%
- remaining binding at 10 µM (IRAK3): 97%
- remaining binding at 10 µM (FER): 100%
- remaining binding at 10 µM (FGFR3): 100%
- remaining binding at 10 µM (BRSK2): 100%
- remaining binding at 10 µM (TRKA): 81%
- Antagonism (CXCR5; 10 uM): −2
- Agonism (CXCR5; 12.5 uM): 0.9
- remaining binding at 10 µM [2]: 84%
- Agonism (GPR14): 16.8*
- Antagonism (CXCR1; 10 uM): 6.5
- Agonism (CXCR1; 12.5 uM): −0.7
- remaining binding at 10 µM (TEC): 93%
- remaining binding at 10 µM (SNARK): 100%
- Antagonism (GLP-2; 10 uM): 2.1
- Agonism (GLP-2; 12.5 uM): −0.2
- Antagonism (BB1; 10 uM): 3.5
- Agonism (BB1; 12.5 uM): −0.2
- remaining binding at 10 µM (AKT1): 78%
- Antagonism (CaS; 10 uM): −3.6
- Agonism (CaS; 12.5 uM): −1.2
